Values after ≈ are worked out from the molar mass of the structure shown. Like-named read-outs stand apart in the source and are kept apart here.
Test system: PGE2 synthesis in AGS cells
Test: PGE2 synthesis in the AGS human gastric mucosal cell model (A23187)
Type: cell-based
Experimental: Exponentially growing cells were seeded into 6-well plates and grown to confluence. A 20 μL aliquot of the supernatant media was sampled for determination of PGE2 content. Cells were then washed in PBS, scraped and lysed for immunoblotting.

[1] = AGS cells, historical control values, read-out: AGS IC50 for PGE2 synthesis, historical control

| SMILES | IC50 (AGS, read-out: AGS IC50 for PGE2 synthesis, historical control) [µg/mL] | IC50 [1] [µg/mL] | IC50 (AGS cells, test material 60 minutes prior to A23187, media removed 30 minutes later, average of three independent assays, read-out: AGS IC50 for PGE2 synthesis) [µg/mL] |
| --- | --- | --- | --- |
| Cc1ccc(-c2cc(C(F)(F)F)nn2-c2ccc(S(N)(=O)=O)cc2)cc1 [Celcoxib] | 0.024 (≈ 0.0629 µM) |  |  |
| CS(=O)(=O)c1ccc(C2=C(c3ccccc3)C(=O)OC2)cc1 [Rofecoxib] |  | 1.8 (≈ 5.73 µM) |  |
| CC(=O)Oc1ccccc1C(=O)O [Aspirin] |  | 0.52 (≈ 2.89 µM) | 1.2 (≈ 6.66 µM) |
| CC(C)Cc1ccc(C(C)C(=O)O)cc1 (centres unmarked) [Ibuprofen] |  | 0.57 (≈ 2.76 µM) |  |

From patent publication US20050192356A1, “Synergistic anti-inflammatory pharmaceutical compositions and methods of use” (priority 2004, published 2005)
